From ChEMBL document CHEMBL1770065, “Discovery of a clinical candidate from the structurally unique dioxa-bicyclo[3.2.1]octane class of sodium-dependent glucose cotransporter 2 inhibitors” (J Med Chem, 2011)

Experiments:
[1] = target: T1, Organic anion transporter 3 (Homo sapiens, UniProt Q8TCC7); assay: Inhibition of human OAT3
T1 sequence (Q8TCC7 whole entry): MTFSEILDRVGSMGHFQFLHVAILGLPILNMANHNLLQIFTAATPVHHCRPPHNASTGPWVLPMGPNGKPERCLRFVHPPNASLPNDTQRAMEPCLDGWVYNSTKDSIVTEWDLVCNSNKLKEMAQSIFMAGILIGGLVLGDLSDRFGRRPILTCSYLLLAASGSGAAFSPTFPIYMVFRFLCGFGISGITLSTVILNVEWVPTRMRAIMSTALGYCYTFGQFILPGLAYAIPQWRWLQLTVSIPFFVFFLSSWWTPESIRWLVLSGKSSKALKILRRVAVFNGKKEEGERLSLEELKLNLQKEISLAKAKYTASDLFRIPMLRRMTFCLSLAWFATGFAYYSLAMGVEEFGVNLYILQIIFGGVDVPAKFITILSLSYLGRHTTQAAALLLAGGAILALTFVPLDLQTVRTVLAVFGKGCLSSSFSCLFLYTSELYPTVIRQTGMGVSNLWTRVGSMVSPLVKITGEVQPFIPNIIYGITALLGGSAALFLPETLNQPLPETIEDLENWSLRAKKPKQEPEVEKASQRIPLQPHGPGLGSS

Rattus norvegicus [2] = assay: Inhibition of SGLT2 in po dosed Sprague-Dawley rat after 24 hrs; assay type: functional, organism-based
[3] = Lipophilicity, log D of the compound; assay type: physicochemical; conditions: octanol/water
[4] = target: T2, Solute carrier family 22 member 3 (Rattus norvegicus, UniProt O88446); assay: Inhibition of rat OCT3 expressed in HEK293 cells; assay type: cell-based
T2 sequence (O88446 whole entry): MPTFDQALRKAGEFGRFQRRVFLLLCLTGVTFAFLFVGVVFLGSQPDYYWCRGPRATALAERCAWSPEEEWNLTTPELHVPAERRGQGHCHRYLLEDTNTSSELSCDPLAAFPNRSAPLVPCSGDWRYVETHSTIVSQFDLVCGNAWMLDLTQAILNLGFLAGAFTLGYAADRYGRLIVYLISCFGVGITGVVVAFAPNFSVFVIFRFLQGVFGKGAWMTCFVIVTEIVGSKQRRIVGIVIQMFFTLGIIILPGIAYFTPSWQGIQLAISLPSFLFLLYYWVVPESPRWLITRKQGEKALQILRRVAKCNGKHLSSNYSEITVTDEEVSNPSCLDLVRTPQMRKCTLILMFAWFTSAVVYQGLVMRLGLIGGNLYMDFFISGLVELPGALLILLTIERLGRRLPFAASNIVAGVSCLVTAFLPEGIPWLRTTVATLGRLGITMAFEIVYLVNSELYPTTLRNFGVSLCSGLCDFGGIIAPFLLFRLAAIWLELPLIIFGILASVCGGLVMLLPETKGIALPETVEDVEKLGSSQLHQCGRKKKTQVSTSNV

[5] = target: T3, Solute carrier family 22 member 2 (Homo sapiens, UniProt O15244); assay: Inhibition of human OCT2
T3 sequence (O15244 whole entry): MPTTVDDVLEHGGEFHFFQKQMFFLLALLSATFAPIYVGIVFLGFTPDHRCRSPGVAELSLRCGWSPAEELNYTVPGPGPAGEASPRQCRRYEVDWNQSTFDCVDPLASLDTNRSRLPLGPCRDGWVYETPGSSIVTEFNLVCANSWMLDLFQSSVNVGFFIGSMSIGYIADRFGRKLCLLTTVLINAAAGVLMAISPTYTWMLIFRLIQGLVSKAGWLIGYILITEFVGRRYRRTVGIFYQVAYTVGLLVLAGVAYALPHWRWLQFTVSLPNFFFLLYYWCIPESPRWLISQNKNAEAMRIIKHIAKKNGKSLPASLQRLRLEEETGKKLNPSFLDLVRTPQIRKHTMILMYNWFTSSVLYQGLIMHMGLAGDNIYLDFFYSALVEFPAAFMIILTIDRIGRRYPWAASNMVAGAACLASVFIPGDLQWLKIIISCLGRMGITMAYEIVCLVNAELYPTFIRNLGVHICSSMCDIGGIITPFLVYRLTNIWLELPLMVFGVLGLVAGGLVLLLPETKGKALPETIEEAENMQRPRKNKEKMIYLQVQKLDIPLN

Rattus norvegicus [6] = assay: Antidiabetic activity in po dosed Sprague-Dawley rat assessed as increase of urinary glucose excretion after 24 hrs; assay type: functional, organism-based; conditions: Urine
Rattus norvegicus [7] = assay: fAUC (0 to 24 hrs) in Sprague-Dawley rat at 30 mg/kg, po after 24 hrs; assay type: ADME, organism-based; parameters: dose 30 mg/kg, route oral; conditions: in vivo
[8] = Volume of distribution at steady state in Sprague-Dawley rat at 2 mg/kg, iv; assay type: ADME, organism-based; parameters: dose 2 mg/kg, route intravenous; conditions: in vivo, read-out: Vdss
Plasma = assay: Fraction unbound in rat plasma at 1000 ng/mL by equilibrium dialysis method; assay type: ADME, cell-free
[9] = Tmax in Sprague-Dawley rat at 5 mg/kg, po; assay type: ADME, organism-based; parameters: dose 5 mg/kg, route oral; conditions: in vivo

inhibition (INH) [1]: Not Active | IC50 (Rattus norvegicus [2]): 1.8 nM | logD [3]: 3.6 | inhibition (INH) [4]: Not Active | inhibition (INH) [5]: Not Active | fAUC (Rattus norvegicus [7]): 4280 ng·h/mL | Vd [8]: 1.13 L/kg | Fu (Plasma): 4% | Tmax [9]: 1 h
Structure (SMILES): CCOc1ccc(Cc2cc([C@]34OC[C@](CO)(O3)[C@@H](O)[C@H](O)[C@H]4O)ccc2Cl)cc1 [ERTUGLIFLOZIN]
Activity (Rattus norvegicus [6]): Dose-dependent effect
